{"source": "patent US11052090B2", "about": "“Use of TREM-1 inhibitors for treatment, elimination and eradication of HIV-1 infection” (priority 2015, dated 2021)", "key": {"[1]": {"tested_on": "primary human lymphocytes", "assay": "Proliferation and viability of activated PBM cells / PHA or PHA+IL-2 stimulated primary human lymphocytes", "format": "cell-based", "details": "for Viability, proliferation or total cell number not affected up to: human", "description": "The toxicity of the compounds was assessed in Vero, human PBM, CEM (human lymphoblastoid), as described previously (see Schinazi R. F., Sommadossi J.-P., Saalmann V., Cannon D. L., Xie M.-Y., Hart G. C., Smith G. A. & Hahn E. F. Antimicrob. Agents Chemother. 1990, 34, 1061-67), and also in MØ cells. Cycloheximide was included as positive cytotoxic control, and untreated cells exposed to cell culture medium were included as negative controls. […]\nCell proliferation was evaluated in activated PBM cells incubated for 5 days with various concentrations of Tofacitinib and Jakafi, with cycloheximide as a positive control, and a “cells plus media” control used as well. The data is shown in FIG. 2, in terms of total cell number (10^6 cells) versus μM drug in medium.\nCell viability was evaluated in activated PBM cells incubated for 5 days with various concentrations of Tofacitinib and Jakafi, with cycloheximide as a positive control, and a “cells plus media” control used as well.\nFor all experiments, cells were incubated with media alone or drug-containing medium for 5 days prior to assessment of cell count and viability. […] Data are mean and standard deviations for at least three independent experiments conducted with at least four pooled donors, and duplicates within each experiment. Dotted bar represents mean cell count or viability for cells maintained in drug-free medium."}, "mice": {"tested_on": "mice", "details": "mouse, in vivo; cited from earlier work"}, "HepG2 cells": {"tested_on": "HepG2 cells", "details": "10 μM; cited from earlier work"}, "HIV-1 (BaL)": {"tested_on": "HIV-1 (BaL)", "assay": "microbe, parasite or virus in culture", "format": "cell-based", "description": "Macrophages can be isolated as follows: Monocytes can be isolated from buffy coats of HIV-1 negative, HBV/HCV-negative donors with density gradient centrifugation coupled with enrichment for CD14+ monocytes with Rosette Sep antibody cocktail (Stem Cell Technologies, Vancouver, British Columbia). Cells can be seeded at a concentration of 1.0×10^6 cells/well for 1 hr at 37° C. and 5% CO2 to confer plastic adherence prior to repeated washes with 1×PBS. Macrophages can be maintained in medium containing 100 U/ml macrophage colony-stimulating factor (m-CSF, R&D Systems, Minneapolis, Minn.), supplemented with 20% fetal calf serum (Atlanta Biologicals, Lawrenceville, Ga.) and 1% penicillin/streptomyocin (Invitrogen, Carlsbad, Calif.) for 7 days (37° C., 5% CO2) prior to testing.\nMacrophage infections: Macrophages can be cultured as described above for 7 days. For acute infection, macrophages can be serum starved for 8 hrs prior to infection and cultured for 2 hr in medium containing various concentrations of AZT (positive control) or Tofacitinib or Jakafi for 2 hr prior to removal of drug-containing medium and 4 hr infection with HIV-1BaL at 0.1 MOI in the absence of drug. Four hr after infection, virus can be removed and drug-containing medium returned to the cultures. Supernatants can be collected on day 7 post-infection and HIV-1 p24 can be quantified via ELISA (Zeptometrix Corporation, Buffalo, N.Y.). EC50 analysis can be performed using CalcuSyn software (BioSoft Corporation, Cambridge, UK).\nExtracellular virus was quantified 7 days after infection (HIV-1 p24 ELISA)."}, "HIV-1": {"tested_on": "HIV-1", "description": "Human PBM cells can be isolated as follows: Lymphocytes can be isolated from buffy coats derived from healthy donors. Activated lymphocytes can be maintained for 72 hr in medium supplemented with 6 μg/ml phytohemagglutinin (PHA) (Cape Cod associates, East Falmouth, Mass.). Media can be comprised of RPMI media supplemented with 20% fetal calf serum, 1% penicillin/streptomyocin and 2% L-glutamine (Sigma Aldrich, San Jose, Calif.).\nHuman PBM cell infections: Testing can be performed in duplicate with at least 3 independent assays. Cells can be incubated in RPMI medium (HyClone, Logan, Utah) containing HR-IL2 (26.5 units/ml) and 20% fetal calf serum. Infections can be performed by adding HIV-ILA' followed by a further incubation at 37° C., 5% CO2, 1 hr prior to addition of drugs. Assays can be performed in 24 well plates (BD Biosciences, Franklin Lakes, N.J.). One ml of supernatant can be collected after 5 days in culture and then centrifuged at 12,000 rpm for 2 hr at 4° C. in a Jouan Br43i (Thermo Electron Corp., Marietta, Ohio). The product of the RT assay can be quantified using a Packard harvester and direct beta counter and the data can be analyzed as previously described (Schinazi et al., 1990)."}, "MØ cells": {"tested_on": "MØ cells", "format": "cell-based", "details": "human", "description": "The toxicity of the compounds was assessed in Vero, human PBM, CEM (human lymphoblastoid), as described previously (see Schinazi R. F., Sommadossi J.-P., Saalmann V., Cannon D. L., Xie M.-Y., Hart G. C., Smith G. A. & Hahn E. F. Antimicrob. Agents Chemother. 1990, 34, 1061-67), and also in MØ cells. Cycloheximide was included as positive cytotoxic control, and untreated cells exposed to cell culture medium were included as negative controls.\nThe cytotoxicity IC50 was obtained from the concentration-response curve using the median effective method described previously (see Chou T.-C. & Talalay P. Adv. Enzyme Regul. 1984, 22, 27-55; Belen'kii M. S. & Schinazi R. F. Antiviral Res. 1994, 25, 1-11)."}, "[2]": {"tested_on": "primary human macrophages", "assay": "Toxicity in primary human macrophages (zombie violet live/dead dye, FACS)", "format": "cell-based", "details": "Macrophage"}}}
{"molecule": "C[C@@H]1C[C@@H]([C@H](O)CC2CC(=O)NC(=O)C2)C(=O)[C@@H](C)C1", "note": "[cycloheximide]", "values": [{"measurement": "Cell count and viability (positive control)", "setting": "[1]; stimulated lymphocytes, 5 days", "result": "toxic in a dose dependent manner"}]}
{"molecule": "LR6-2: EDAGEY, SEQ ID NO 5 (listed as Homo sapiens)", "values": [{"measurement": "Protection of mice against polymicrobial sepsis", "setting": "mice", "result": "protect"}]}
{"molecule": "O=c1[nH]c(=O)n([C@@H]2O[C@H](CO)[C@@H](O)[C@@H]2F)cc1I", "note": "[fialuridine, 1,2′-deoxy-2′-fluoro-1-D-arabinofuranosly-5-iodo-uracil]", "values": [{"measurement": "Mitochondrial morphology in electron micrographs", "setting": "HepG2 cells", "result": "enlarged mitochondria with morphological changes consistent with mitochondrial dysfunction"}]}
{"molecule": "LR6-1: LQEEDA, SEQ ID NO 4 (listed as Homo sapiens)", "values": [{"measurement": "Protection of mice against polymicrobial sepsis", "setting": "mice", "result": "protect"}]}
{"molecule": "LR6-3: GEYGCM, SEQ ID NO 6 (listed as Homo sapiens)", "values": [{"measurement": "Protection of mice against polymicrobial sepsis", "setting": "mice", "result": "protect"}]}
{"molecule": "C[C@@H]1CCN(C(=O)CC#N)C[C@@H]1N(C)c1ncnc2[nH]ccc12", "note": "[Tofacitinib, 3-{(3R,4R)-4 methyl-3-[methyl-(7H-pyrrolo[2,3-d]pyrimidin-4-yl)-amino]-piperidin-1-yl}-3-oxo-propionitrile]", "values": [{"measurement": "Inhibition of HIV-1 replication in MØ cells", "setting": "HIV-1 (BaL)", "result": "sub-micromolar"}, {"measurement": "Inhibition of HIV-1 replication in PBM cells", "setting": "HIV-1", "result": "sub-micromolar"}, {"measurement": "Proliferation versus cells exposed to media alone", "setting": "[1]", "result": "not significantly different"}, {"measurement": "Total cell proliferation", "setting": "[1]", "result": "do not affect"}, {"measurement": "Total cell viability", "setting": "[1]", "result": "do not affect"}, {"measurement": "Viability versus cells exposed to media alone", "setting": "[1]", "result": "not significantly different"}, {"measurement": "Viability, proliferation or total cell number not affected up to", "setting": "[1]; 5 days", "result": "around 10 μM"}, {"measurement": "Viability, proliferation or total cell number not affected up to", "setting": "MØ cells", "result": "around 10 μM"}]}
{"molecule": "Cc1cn([C@H]2C[C@H](N=[N+]=[N-])[C@@H](CO)O2)c(=O)[nH]c1=O", "note": "[AZT, 3′-azido-3′-deoxythymidine]", "values": [{"measurement": "Inhibition of HIV-1 replication in primary human macrophages", "setting": "HIV-1 (BaL); HIV-1 BaL, p24 ELISA day 7", "result": "nanomolar inhibition"}, {"measurement": "EC50", "setting": "HIV-1 (BaL); Human immunodeficiency virus 1, Macrophage, 168 h, HIV-1 BaL, extracellular virus 7 days after infection, read-out: Antiviral potency in primary human macrophages (EC50)", "result": "10 ± 20", "unit": "nM"}, {"measurement": "EC90", "setting": "HIV-1 (BaL); Human immunodeficiency virus 1, Macrophage, 168 h, HIV-1 BaL, extracellular virus 7 days after infection, read-out: Antiviral potency in primary human macrophages (EC90)", "result": "700 ± 200", "unit": "nM"}, {"measurement": "IC50", "setting": "[2]", "result": "> 100000", "unit": "nM"}]}
{"molecule": "N#CC[C@H](C1CCCC1)n1cc(-c2ncnc3[nH]ccc23)cn1", "note": "[Jakafi]", "values": [{"measurement": "Inhibition of HIV-1 replication in MØ cells", "setting": "HIV-1 (BaL)", "result": "sub-micromolar"}, {"measurement": "Inhibition of HIV-1 replication in PBM cells", "setting": "HIV-1", "result": "sub-micromolar"}, {"measurement": "Proliferation versus cells exposed to media alone", "setting": "[1]", "result": "not significantly different"}, {"measurement": "Total cell proliferation", "setting": "[1]", "result": "do not affect"}, {"measurement": "Total cell viability", "setting": "[1]", "result": "do not affect"}, {"measurement": "Viability versus cells exposed to media alone", "setting": "[1]", "result": "not significantly different"}, {"measurement": "Viability, proliferation or total cell number not affected up to", "setting": "[1]; 5 days", "result": "around 10 μM"}, {"measurement": "Viability, proliferation or total cell number not affected up to", "setting": "MØ cells", "result": "around 10 μM"}]}
